For orientation: IC50 means the concentration at which inhibition is half-maximal. A low value points to higher potency. As usually defined, the inhibition is the relative decrease from the control value, in per cent.

Our source for the IC50 and inhibition values is ChEMBL document CHEMBL3779803, “α-Glucosidase Inhibitory Prenylated Anthranols from Harungana madagascariensis” (J Nat Prod, 2016).

Molecular target in one assay: not listed separately
Briefly: Inhibition of Saccharomyces cerevisiae alpha-glucosidase using p-nitrophenyl-alpha-D-glucoside as substrate measured for 40 mins by spectrophotometric analysis.
For `CC(C)=CCc1c(C)cc2cc3c(c(O)c2c1O)C(=O)C(CC1=C(O)C(CC=C(C)C)(CC=C(C)C)c2cc4cc(C)c(CC=C(C)C)c(O)c4c(O)c2C1=O)=C(O)C3(CC=C(C)C)CC=C(C)C`, the IC50 was 1.2 µM.
`C[C@@H]1O[C@@H](O[C@@H]2[C@@H](O)[C@H](O)[C@H](O[C@H]3[C@H](O)[C@@H](O)C(O)O[C@@H]3CO)O[C@H]2CO)[C@@H](O)[C@H](O)[C@H]1N[C@H]1C=C(CO)[C@@H](O)[C@H](O)[C@H]1O` (stereo partly drawn) yielded an IC50 of 120 µM.
With `Cc1cc(O)c2c3c1[C@H](O)[C@@H]1O[C@]3(OC1(C)C)c1c3c(cc(O)c1C2=O)O[C@@H](C(C)(C)O)C3`, the IC50 is 117 µM.
`CC(C)=CCc1c(C)cc(O)c2c(O)c3c(cc12)C(CC=C(C)C)(CC=C(C)C)C(O)=CC3=O` [HARUNGANIN]: half-maximal inhibition (IC50) required 37.7 µM.
As to `CC(C)=CCc1c(C)cc(O)c2c1C(O)c1c(CC=C(C)C)c(O)cc(O)c1C2=O` (stereo not drawn), it took 44.1 µM to reach half-maximal inhibition (IC50).
Regarding `CC(C)=CCc1c(C)cc(O)c2c1[C@@H](O)c1c3c(cc(O)c1C2=O)OC(C)(C)[C@@H](O)C3`, the IC50 worked out at 36.9 µM.
Still for that read-out and setting: for `CC(C)=CCc1c(C)cc(O)c2c1[C@@H](O)c1c3c(cc(O)c1C2=O)O[C@@H](C(C)(C)O)C3` the value was 207 µM.

Another assay deals with Saccharomyces cerevisiae. Briefly: Inhibition of Saccharomyces cerevisiae alpha-glucosidase at 5 uM using p-nitrophenyl-alpha-D-glucoside as substrate measured for 40 mins by spectrophotometric analysis.
The compound `CC(C)=CCc1c(C)cc2cc3c(c(O)c2c1O)C(=O)C=C(O)C3(CC=C(C)C)CC=C(C)C` had an inhibition of 47%.
